Structures can show the parent of a compound that is named as a salt.
Tests used:
Details in all cases: exposure time: 72 h
E13 [1] = patient-derived glioblastoma stem cells of classical subtype; experiment: surviving fraction (nuclei count normalised to DMSO); higher = more cells surviving (less toxic)
E21 [2] = patient-derived glioblastoma stem cells of mesenchymal subtype; experiment: as above
E28 [3] = patient-derived glioblastoma stem cells of classical subtype; experiment: as above
E31 [4] = patient-derived glioblastoma stem cells of proneural subtype; experiment: as above
E34 [5] = patient-derived glioblastoma stem cells of proneural subtype; experiment: as above
E57 [6] = patient-derived glioblastoma stem cells of mesenchymal subtype; experiment: as above
FT3469 [7] = normal neural stem cell line; experiment: as above
E13 [8] = experiment: phenotypic distance (Euclidean, principal components) from DMSO controls (arbitrary units); higher = stronger morphological change
E21 [9] = experiment: as above
E28 [10] = experiment: as above
E31 [11] = experiment: as above
E34 [12] = experiment: as above
E57 [13] = experiment: as above
FT3469 [14] = experiment: as above
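For phenotypic distance (Euclidean, principal components) from DMSO controls in this document: cell Painting imaging in 384-well plates, CellProfiler features reduced to at least 20 principal components, Euclidean distance versus same-plate DMSO vehicle wells (0.1% v/v), median over six images per well.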
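For surviving fraction (nuclei count normalised to DMSO) in this document: nuclei counted by high-content imaging of Hoechst-stained cells in laminin-coated 384-well plates, relative to 0.1% DMSO vehicle wells, with staurosporine as cell-death control.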

COc1cc2nc(N3CCN(C(=O)c4ccco4)CC3)nc(N)c2cc1OC [Prazosin hydrochloride]
Details | phenotypic distance | surviving fraction
E13 [1], 4.11523 nM | – | 1.11
E13 [1], 12.34567901 nM | – | 0.996
E13 [1], 37.037 nM | – | 1.07
E13 [1], 111.1111111 nM | – | 0.955
E13 [1], 333.333 nM | – | 1.04
E13 [1], 1000 nM | – | 1.03
E13 [1], 3000 nM | – | 0.815
E13 [8], 4.11523 nM | 0.601 | –
E13 [8], 12.34567901 nM | 3.49 | –
E13 [8], 37.037 nM | 2.1 | –
E13 [8], 111.1111111 nM | 0.55 | –
E13 [8], 333.333 nM | 0.666 | –
E13 [8], 1000 nM | 0.512 | –
E13 [8], 3000 nM | 2.04 | –
E21 [2], 4.11523 nM | – | 1.03
E21 [2], 12.34567901 nM | – | 1.03
E21 [2], 37.037 nM | – | 1
E21 [2], 111.1111111 nM | – | 1.04
E21 [2], 333.333 nM | – | 1.11
E21 [2], 1000 nM | – | 0.938
E21 [2], 3000 nM | – | 0.912
E21 [9], 4.11523 nM | 0.712 | –
E21 [9], 12.34567901 nM | 0.547 | –
E21 [9], 37.037 nM | 0.834 | –
E21 [9], 111.1111111 nM | 0.524 | –
E21 [9], 333.333 nM | 0.736 | –
E21 [9], 1000 nM | 0.384 | –
E21 [9], 3000 nM | 0.699 | –
E28 [3], 4.11523 nM | – | 1.07
E28 [3], 12.34567901 nM | – | 0.881
E28 [3], 37.037 nM | – | 1.17
E28 [3], 111.1111111 nM | – | 0.956
E28 [3], 333.333 nM | – | 1.2
E28 [3], 1000 nM | – | 0.907
E28 [3], 3000 nM | – | 0.976
E28 [10], 4.11523 nM | 0.643 | –
E28 [10], 12.34567901 nM | 0.664 | –
E28 [10], 37.037 nM | 1.1 | –
E28 [10], 111.1111111 nM | 0.589 | –
E28 [10], 333.333 nM | 0.766 | –
E28 [10], 1000 nM | 1.03 | –
E28 [10], 3000 nM | 0.426 | –
E31 [4], 4.11523 nM | – | 0.988
E31 [4], 12.34567901 nM | – | 1.19
E31 [4], 37.037 nM | – | 1.13
E31 [4], 111.1111111 nM | – | 1.03
E31 [4], 333.333 nM | – | 1.04
E31 [4], 1000 nM | – | 1.07
E31 [4], 3000 nM | – | 1
E31 [11], 4.11523 nM | 0.642 | –
E31 [11], 12.34567901 nM | 0.488 | –
E31 [11], 37.037 nM | 0.739 | –
E31 [11], 111.1111111 nM | 0.653 | –
E31 [11], 333.333 nM | 0.984 | –
E31 [11], 1000 nM | 0.431 | –
E31 [11], 3000 nM | 0.892 | –
E34 [5], 4.11523 nM | – | 1.04
E34 [5], 12.34567901 nM | – | 0.994
E34 [5], 37.037 nM | – | 1.14
E34 [5], 111.1111111 nM | – | 0.986
E34 [5], 333.333 nM | – | 1.11
E34 [5], 1000 nM | – | 0.837
E34 [5], 3000 nM | – | 1.04
E34 [12], 4.11523 nM | 0.522 | –
E34 [12], 12.34567901 nM | 0.593 | –
E34 [12], 37.037 nM | 0.611 | –
E34 [12], 111.1111111 nM | 0.647 | –
E34 [12], 333.333 nM | 0.638 | –
E34 [12], 1000 nM | 0.628 | –
E34 [12], 3000 nM | 0.776 | –
E57 [6], 4.11523 nM | – | 1.07
E57 [6], 12.34567901 nM | – | 1.02
E57 [6], 37.037 nM | – | 1.09
E57 [6], 111.1111111 nM | – | 0.961
E57 [6], 333.333 nM | – | 1
E57 [6], 1000 nM | – | 0.915
E57 [6], 3000 nM | – | 0.97
E57 [13], 4.11523 nM | 0.592 | –
E57 [13], 12.34567901 nM | 0.576 | –
E57 [13], 37.037 nM | 0.642 | –
E57 [13], 111.1111111 nM | 0.745 | –
E57 [13], 333.333 nM | 0.475 | –
E57 [13], 1000 nM | 0.697 | –
E57 [13], 3000 nM | 0.95 | –
FT3469 [7], 4.11523 nM | – | 1
FT3469 [7], 12.34567901 nM | – | 1.14
FT3469 [7], 37.037 nM | – | 1.03
FT3469 [7], 111.1111111 nM | – | 1.05
FT3469 [7], 333.333 nM | – | 1.14
FT3469 [7], 1000 nM | – | 1.12
FT3469 [7], 3000 nM | – | 1.06
FT3469 [14], 4.11523 nM | 0.634 | –
FT3469 [14], 12.34567901 nM | 0.798 | –
FT3469 [14], 37.037 nM | 0.909 | –
FT3469 [14], 111.1111111 nM | 0.541 | –
FT3469 [14], 333.333 nM | 0.436 | –
FT3469 [14], 1000 nM | 0.748 | –
FT3469 [14], 3000 nM | 0.762 | –

CC(C)NCC(O)COc1cccc2ccccc12 (stereo unspecified) [Propranolol hydrochloride]
Details | phenotypic distance | surviving fraction
E13 [1], 4.1 nM | – | 0.971
E13 [1], 12.3 nM | – | 1.08
E13 [1], 37 nM | – | 0.923
E13 [1], 111.1 nM | – | 1.07
E13 [1], 333.3 nM | – | 1.1
E13 [1], 1000 nM | – | 1.03
E13 [1], 3000 nM | – | 0.991
E13 [8], 4.1 nM | 0.572 | –
E13 [8], 12.3 nM | 1.82 | –
E13 [8], 37 nM | 0.661 | –
E13 [8], 111.1 nM | 0.582 | –
E13 [8], 333.3 nM | 0.522 | –
E13 [8], 1000 nM | 0.547 | –
E13 [8], 3000 nM | 0.516 | –
E21 [2], 4.1 nM | – | 0.912
E21 [2], 12.3 nM | – | 0.926
E21 [2], 37 nM | – | 0.978
E21 [2], 111.1 nM | – | 1.01
E21 [2], 333.3 nM | – | 1.01
E21 [2], 1000 nM | – | 1.1
E21 [2], 3000 nM | – | 1
E21 [9], 4.1 nM | 0.729 | –
E21 [9], 12.3 nM | 0.784 | –
E21 [9], 37 nM | 0.999 | –
E21 [9], 111.1 nM | 0.707 | –
E21 [9], 333.3 nM | 0.864 | –
E21 [9], 1000 nM | 0.673 | –
E21 [9], 3000 nM | 0.713 | –
E28 [3], 4.1 nM | – | 0.98
E28 [3], 12.3 nM | – | 1.05
E28 [3], 37 nM | – | 0.949
E28 [3], 111.1 nM | – | 1.12
E28 [3], 333.3 nM | – | 1.03
E28 [3], 1000 nM | – | 1.13
E28 [3], 3000 nM | – | 1.03
E28 [10], 4.1 nM | 0.642 | –
E28 [10], 12.3 nM | 0.425 | –
E28 [10], 37 nM | 0.914 | –
E28 [10], 111.1 nM | 0.692 | –
E28 [10], 333.3 nM | 0.687 | –
E28 [10], 1000 nM | 0.509 | –
E28 [10], 3000 nM | 0.633 | –
E31 [4], 4.1 nM | – | 0.954
E31 [4], 12.3 nM | – | 0.993
E31 [4], 37 nM | – | 1.1
E31 [4], 111.1 nM | – | 1.08
E31 [4], 333.3 nM | – | 0.917
E31 [4], 1000 nM | – | 0.96
E31 [4], 3000 nM | – | 1.05
E31 [11], 4.1 nM | 0.541 | –
E31 [11], 12.3 nM | 0.694 | –
E31 [11], 37 nM | 0.736 | –
E31 [11], 111.1 nM | 0.802 | –
E31 [11], 333.3 nM | 0.203 | –
E31 [11], 1000 nM | 0.509 | –
E31 [11], 3000 nM | 0.646 | –
E34 [5], 4.1 nM | – | 0.945
E34 [5], 12.3 nM | – | 0.847
E34 [5], 37 nM | – | 0.941
E34 [5], 111.1 nM | – | 1.06
E34 [5], 333.3 nM | – | 0.876
E34 [5], 1000 nM | – | 1.1
E34 [5], 3000 nM | – | 0.949
E34 [12], 4.1 nM | 0.622 | –
E34 [12], 12.3 nM | 0.866 | –
E34 [12], 37 nM | 0.551 | –
E34 [12], 111.1 nM | 0.616 | –
E34 [12], 333.3 nM | 0.597 | –
E34 [12], 1000 nM | 0.71 | –
E34 [12], 3000 nM | 0.686 | –
E57 [6], 4.1 nM | – | 1.05
E57 [6], 12.3 nM | – | 0.959
E57 [6], 37 nM | – | 1.11
E57 [6], 111.1 nM | – | 1.14
E57 [6], 333.3 nM | – | 1.1
E57 [6], 1000 nM | – | 1.09
E57 [6], 3000 nM | – | 1.06
E57 [13], 4.1 nM | 0.6 | –
E57 [13], 12.3 nM | 1.04 | –
E57 [13], 37 nM | 0.554 | –
E57 [13], 111.1 nM | 0.801 | –
E57 [13], 333.3 nM | 0.597 | –
E57 [13], 1000 nM | 0.686 | –
E57 [13], 3000 nM | 0.742 | –
FT3469 [7], 4.1 nM | – | 0.985
FT3469 [7], 12.3 nM | – | 1.11
FT3469 [7], 37 nM | – | 1.03
FT3469 [7], 111.1 nM | – | 0.965
FT3469 [7], 333.3 nM | – | 1.01
FT3469 [7], 1000 nM | – | 1.24
FT3469 [7], 3000 nM | – | 1.13
FT3469 [14], 4.1 nM | 0.45 | –
FT3469 [14], 12.3 nM | 0.575 | –
FT3469 [14], 37 nM | 0.676 | –
FT3469 [14], 111.1 nM | 0.814 | –
FT3469 [14], 333.3 nM | 0.71 | –
FT3469 [14], 1000 nM | 0.957 | –
FT3469 [14], 3000 nM | 0.566 | –

Source: the supplement of paper PMC13207355
